Assay results as given in US9238030B2, “Methods for treatment of diseases and disorders related to transducin β-like protein 1 (TBL1) activity, including myeloproliferative neoplasia and chronic myeloid leukemia” (Beta Cat Pharmaceuticals, LLC, priority 2011, dated 2016).

Experiments:
β-catenin [1] = assay: Western blot, proteasomal degradation of β-catenin in AML cells (FIG. 6C); format: cell-based
Experimental: As one can see, there is less of β-catenin in the AML cells treated with 100 nM of Compound 1 for 8 hours as compared to non-treated AML cells. However, when 10 nM of Carfilzomib (CZ) (a proteasome inhibitor) were administered to the same AML cells, the amount of β-catenin increased.

HEL 92.1.7 cells [2] = assay: Apoptosis of MPN cells, annexin V / TOPRO3 flow cytometry; format: cell-based
Experimental: (§1) Briefly, the cell lines HEL 92.1.7 (FIGS. 1A and 1C) and UKE1 (FIGS. 1B and 1D) were seeded in medium containing 10% FBS and penicillin/streptomycin. After 24 hours, the cells were treated with either: 1) Compound 1; or 2) Compound 1 in combination with TG101209 for 48 hours. At the end of treatment, cells were washed with 1×PBS and stained with annexin V and TOPRO3 iodide. The percentages of apoptotic cells were determined by flow cytometry.

UKE1 cells = assay: as above; format: cell-based
Experimental: as §1

CD34+ MPN cells = assay: Apoptosis of primary MPN cells isolated from patients; format: cell-based
Experimental: Briefly, the CD34+ cells isolated from bone marrow of MPN patients, were seeded in medium containing 10% FBS and penicillin/streptomycin. After 24 hours, the cells were treated with Compound 1 for 48 hours or Compound 1 in combination with TG101209. At the end of treatment, cells were washed with 1×PBS and stained with annexin V and TOPRO3 iodide. The percentages of apoptotic cells were determined by flow cytometry. Combination index (CI) was determined using the method of Chou-Talalay (Adv. Enzyme Regul. 22, 27-55).

K562 cells = assay: Apoptosis of CML cells, annexin V / TOPRO3 flow cytometry; format: cell-based, human
Experimental: (§2) Briefly, cell lines K562 (human immortalized myelogenous leukemia line) and LAMA-84 (a human leucocytic cell line) were seeded in medium containing 10% FBS and penicillin/streptomycin. After 24 hours, the cells were treated with Compound 1 for 48 hours. At the end of the treatment, the cells were washed with 1×PBS and stained with annexin V and TOPRO3 iodide. The percentages of apoptotic cells were determined by flow cytometry.
(§3) Briefly, the cell lines K562 and LAMA-84, were seeded in medium containing 10% FBS and penicillin/streptomycin. After 24 hours, the cells were treated with either: 1) Compound 1 alone; or 2) in combination with panobinostat and nilotinib for 48 hours. At the end of treatment, cells were washed with 1×PBS and stained with annexin V and TOPRO3 iodide. The percentages of apoptotic cells were determined by flow cytometry.

LAMA-84 cells = assay: as above; format: cell-based, human
Experimental: as §2, §3

HEL 92.1.7 cells [3] = assay: Mouse model of human MPN, survival; format: in vivo, NOD-SCID mice; details: 15 or 20 mg/Kg b.i.w for three weeks via the tail vein; p<001
Experimental: Briefly, NOD-SCID mice were sub-lethally irradiated and HEL 92.1.7 cells were infused into the tail vein and MPN established. Mice were treated with 15 or 20 mg/Kg of Compound 1 administered b.i.w for three weeks via the tail vein. Animals were followed for survival after dosing stopped.

β-catenin [4] = assay: β-catenin expression and nuclear localization, staining with anti-β-catenin antibody and DAPI; format: cell-based; details: CD34+ Primary FLT3-ITD AML cells, 100 nM, 16 hours
Text: Briefly, CD34+ Primary AML cells, CD34+ Primary FLT3-ITD AML cells and CD34+ Normal cells were stained with anti-β-catenin antibody and DAPI nucleic acid stain. The photographs of these stains were also merged. The photographs of the stained cells are contained in FIG. 5A. As these photographs show, there is a lot of β-catenin expressed in both types of AML cells, and β-catenin is concentrated in nuclei of these cells.
As one can see, compared to control cells (i.e., not treated with Compound 1), this treatment leads to depletion of β-catenin expression and nuclear localization in AML cells.

β-catenin [5] = assay: Western blot of AML cells (FIG. 5C); format: cell-based; details: 100 nM
β-catenin [6] = assay: Western blot of primary AML cells (FIG. 6A); format: cell-based; details: 100 nM, 8 hours
[7] = biological target: T1, binding of β-catenin to TBL1 (Homo sapiens, UniProt O60907); assay: Staining of AML cells with anti-β-catenin antibody, anti-TBL1 antibody and DAPI (FIG. 6B); format: cell-based; details: 100 nM, 16 hours
T1 construct: endogenous in cells; host or cells: AML cells
T1 sequence (O60907 1-577): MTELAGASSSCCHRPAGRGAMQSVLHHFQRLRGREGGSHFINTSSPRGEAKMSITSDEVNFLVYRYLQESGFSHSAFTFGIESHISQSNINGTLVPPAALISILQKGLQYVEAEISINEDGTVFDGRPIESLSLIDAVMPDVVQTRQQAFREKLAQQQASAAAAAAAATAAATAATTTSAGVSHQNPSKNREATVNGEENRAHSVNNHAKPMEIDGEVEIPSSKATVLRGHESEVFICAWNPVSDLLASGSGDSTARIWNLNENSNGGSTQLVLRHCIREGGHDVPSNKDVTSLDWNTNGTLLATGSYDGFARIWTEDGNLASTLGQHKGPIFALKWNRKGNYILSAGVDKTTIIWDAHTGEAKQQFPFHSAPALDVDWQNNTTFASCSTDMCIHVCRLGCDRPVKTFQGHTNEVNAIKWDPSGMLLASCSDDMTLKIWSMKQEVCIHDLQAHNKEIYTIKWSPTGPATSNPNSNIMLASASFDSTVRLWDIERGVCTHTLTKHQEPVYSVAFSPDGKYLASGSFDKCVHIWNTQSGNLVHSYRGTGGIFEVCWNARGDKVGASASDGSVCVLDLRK
Experimental: FIG. 6B is a series of photographs of stained AML cells with and without prior administration of Compound 1. The top panel depicts control cells (without prior administration of Compound 1) and the bottom panel depicts AML cells following administration of 100 nM of Compound 1 for 16 hours. The cells were stained with the anti-β-catenin antibody, anti-TBL1 antibody, and DAPI nucleic acid stain. The photographs of TBL1 and anti-beta-catenin stains were also merged. […] Compare especially the top right photograph and the bottom right photograph.

[8] = system: TCF reporter plasmid (TOP-FLASH); assay: TOP-FLASH and FOP-FLASH luciferase activity in AML cells; format: cell-based; details: 20 nM, 50 nM, and 100 nM
Text: FIG. 7A depicts a bar chart of TOP-FLASH and FOP-FLASH luciferase activity versus treatment of AML cells with different amounts of Compound 1.
TOP-FLASH is a Transfection grade T-cell factor (TCF) reporter plasmid containing two sets (with the second set in the reverse orientation) of three copies of the TCF binding site (wild type) upstream of the Thymidine Kinase (TK) minimal promoter and Luciferase open reading frame.
FOP-FLASH is a reporter plasmid containing mutated TCF binding sites is a negative control.
There was no reduction in FOP-FLASH (negative control).

[9] = system: β-catenin at target gene promoters; assay: chIP (Chromatin immunoprecipitation) analysis in AML cells; format: cell-based; details: 200 nM, 8 hours
Text: FIG. 7B contains the bar chart of the results of chIP (Chromatin immunoprecipitation) analysis of the effect of treating AML cells with Compound 1.

[10] = system: β-catenin, c-MYC, Cyclin D1 and p21; assay: Levels of β-catenin, c-MYC, Cyclin D1 and p21 in AML cells (FIG. 7C); format: cell-based; details: 100 nM
Experimental: FIG. 7C contains the bar chart of the effect of administering 100 nM of Compound 1 to AML cells on levels of β-catenin, c-MYC, Cyclin D1 and p21 (control).

[11] = system: CD34+ Primary FLT3-WT AML cells; assay: % of non-viable cells, in vitro apoptosis; format: cell-based; details: various amounts
[12] = system: CD34+ Primary FLT3-ITD AML cells; assay: % of non-viable cells, in vitro apoptosis; format: cell-based; details: various amounts
[13] = system: CD34+ CD38-Lin-Primary AML cells; assay: % of non-viable cells, in vitro apoptosis; format: cell-based; details: various amounts
OCI-AML3 xenograft cells = assay: Survival of NSG mice with established AML by OCI-AML3 xenograft; format: in vivo; details: three weeks, twice per week tail vein infusion
[14] = system: primary FLT3-ITD AML xenograft; assay: Survival of NSG mice with primary FLT3-ITD AML xenograft; format: in vivo; details: 10 mg/kg, three weeks, twice per week intravenous infusion
Text: Very similar results were obtained in NSG mice with primary FLT3-ITD AML xenograft.

[15] = in combination with Compound 1, 48 hours

SMILES: CC(C)C[C@H](NC(=O)[C@H](CCc1ccccc1)NC(=O)CN1CCOCC1)C(=O)N[C@@H](Cc1ccccc1)C(=O)N[C@@H](CC(C)C)C(=O)[C@@]1(C)CO1 [Carfilzomib, reference compound]
- amount of β-catenin (β-catenin [1]; 10 nM Carfilzomib administered to the same AML cells treated with Compound 1): increased

SMILES: C[C@@H]1C[C@H](C)CN(S(=O)(=O)c2ccc3c(c2)C(=NO)c2cc(S(=O)(=O)N4C[C@H](C)C[C@H](C)C4)ccc2C3=NO)C1 [Compound 1]
- apoptosis of HEL 92.1.7 cells (HEL 92.1.7 cells [2]; Compound 1 alone, 48 hours): induced apoptosis
- apoptosis of UKE1 cells (UKE1 cells; Compound 1 alone, 48 hours): induced apoptosis
- apoptosis of CD34+ MPN cells (CD34+ MPN cells; 100 nM or above, 48 hours): induced apoptosis
- effect at S or G2/M phases of the cell cycle (K562 cells; K562, 48 hours): did not have significant effect
- number of apoptotic cells at G0/G1 phase of the cell cycle (K562 cells; K562, 48 hours): increased
- number of apoptotic cells (K562 cells; K562, Compound 1 alone, 48 hours): increased
- effect at S or G2/M phases of the cell cycle (LAMA-84 cells; LAMA-84, 48 hours): did not have significant effect
- number of apoptotic cells at G0/G1 phase of the cell cycle (LAMA-84 cells; LAMA-84, 48 hours): increased
- number of apoptotic cells (LAMA-84 cells; LAMA-84, Compound 1 alone, 48 hours): increased
- survival compared to the control (HEL 92.1.7 cells [3]): significantly improved survival
- β-catenin expression and nuclear localization (β-catenin [4]): depletion
- Survivin level, Western blot (β-catenin [5]): about the same levels
- TBL1 level, Western blot (β-catenin [5]): about the same levels
- c-MYC level, Western blot (β-catenin [5]): about the same levels
- β-actin level, Western blot (β-catenin [5]): about the same levels
- β-catenin expression, Western blot (β-catenin [5]): less
- β-catenin, Western blot (β-catenin [6]): less
- binding of β-catenin to TBL1, staining [7]: severely disrupted
- levels of β-catenin, staining [7]: depleted
- fate of β-catenin (β-catenin [1]; AML cells): proteasomal degradation
- β-catenin compared to non-treated AML cells, Western blot (β-catenin [1]; AML cells, 100 nM, 8 hours): less
- FOP-FLASH luciferase activity (negative control) [8]: no reduction
- TOP-FLASH luciferase activity (expression of β-catenin as measured by this luciferase assay) [8]: much lower expression
- amount of promoter DNA of CCND1, chIP [9]: reduced amount
- amount of promoter DNA of c-MYC, chIP [9]: reduced amount
- amount of promoter DNA of survivin, chIP [9]: reduced amount
- expression of Cyclin D1 [10]: lower expression
- expression of c-MYC [10]: lower expression
- expression of p21 [10]: much higher expression
- expression of β-catenin [10]: lower expression
- in vitro apoptosis (% of non-viable cells) [11]: significantly induced in vitro apoptosis
- in vitro apoptosis (% of non-viable cells) [12]: significantly induced in vitro apoptosis
- in vitro apoptosis (% of non-viable cells) [13]: significantly induced in vitro apoptosis
- survival compared to the control mice (OCI-AML3 xenograft cells; 5 mg/kg): improved survival
- survival compared to the control mice (OCI-AML3 xenograft cells; 10 mg/kg): improved survival
- % survival compared to the control mice [14]: dramatic increase

SMILES: Cc1cnc(Nc2ccc(N3CCN(C)CC3)cc2)nc1Nc1cccc(S(=O)(=O)NC(C)(C)C)c1 [TG101209, N-tert-butyl-3-[[5-methyl-2-[4-(4-methylpiperazin-1-yl)anilino]pyrimidin-4-yl]amino]benzenesulfonamide, reference compound]
- effect on apoptosis induced by Compound 1, HEL 92.1.7 cells (HEL 92.1.7 cells [2]; [15]): enhanced
- effect on apoptosis induced by Compound 1, UKE1 cells (UKE1 cells; [15]): enhanced
- effect on apoptosis induced by Compound 1, CD34+ MPN cells (CD34+ MPN cells; in combination with Compound 1): enhanced

SMILES: Cc1cn(-c2cc(NC(=O)c3ccc(C)c(Nc4nccc(-c5cccnc5)n4)c3)cc(C(F)(F)F)c2)cn1 [nilotinib, reference compound]
- effect on apoptosis induced by Compound 1 (K562 cells; K562, in combination with Compound 1, 48 hours): enhanced
- effect on apoptosis induced by Compound 1 (LAMA-84 cells; LAMA-84, in combination with Compound 1, 48 hours): enhanced
